Experimental findings from patent US20260130928A1, “COMBINATION OF AKR1C3 ACTIVATED ANTICANCER PRODRUG COMPOUND AND ANALGESIC DRUG FOR TREATING CANCER PATIENTS ACCOMPANIED BY PAIN” (ASCENTAWITS PHARMACEUTICALS, LTD., priority 2022, published 2026) are described below.

The nature of series [1]: Body weight / tolerance of mice in the human lung cancer NCI-H460 model.
Protocol: BALB/c nude mice were subcutaneously inoculated with human lung cancer NCI-H460 cells to establish the subcutaneous transplant tumor model of human lung cancer. The experiment was assigned to seven groups, with 5 mice in each group: the test drug Celecoxib 50 mg/kg and 100 mg/kg groups, the AST-3424 2.5 mg/kg group, and different combination therapy groups of Celecoxib 50 mg/kg or 100 mg/kg and AST-3424 2.5 mg/kg, and the 0.5% sodium carboxymethylcellulose vehicle control group. […] The AST-3424 2.5 mg/kg group was administered by tail vein injection once a week for a total of three weeks, and observed for 7 days. In the combination therapy groups of Celecoxib 50 mg/kg or 100 mg/kg and AST-3424 2.5 mg/kg, Celecoxib was administered by gavage once a day for a total of 15 days, and AST-3424 was administered by tail vein injection once a week for a total of three weeks, and observed for 7 days.
The test system of series [2] is H460 cell line. Description: Cell proliferation inhibition by combining Naproxen or TH-3021 and AST-3424 in different sequence of administration (CTG). In kind it is cell-based, human. The settings on record: Homo sapiens, AST-3424 alone 2 h as reference, H460. As to the method: The following are the different treatment methods. […] The plate was shaken gently to ensure uniform mixing, and placed in the incubator for 2 hours. […] The plate was shaken gently to ensure uniform mixing, and placed in the incubator for 2 hours. Subsequently, the plate was washed to remove the compound, and placed in the incubator at 37° C. with 5% CO2 for further 72 hours. […] The plate was shaken gently to ensure uniform mixing, and placed in the incubator for 2 hours. Subsequently, the plate was washed to remove the compounds, and placed in the incubator at 37° C. with 5% CO2 for 72 hours. […] The plate was shaken gently to ensure uniform mixing, and placed in the incubator for 2 hours. […] The plate was shaken gently to ensure uniform mixing, and placed in the incubator for 2 hours. Subsequently, the plate was washed to remove the compounds, and placed in the incubator at 37° C. with 5% CO2 for further 72 hours. […] The plate was shaken gently to ensure uniform mixing, and placed in the incubator for 2 hours. […] The plate was shaken gently to ensure uniform mixing, and placed in the incubator for 2 hours. Subsequently, the plate was washed to remove the compounds, and placed in the incubator at 37° C. with 5% CO2 for further 72 hours. b) Administrating single drug: after 24 hours of cell seeding, the compound was administered alone. […] The plate was shaken gently to ensure uniform mixing, and placed in the incubator at 37° C. with 5% CO2 for 2 hours. Subsequently, the compound was washed off, and each well was added with fresh medium. The plate was placed in the incubator at 37° C. with 5% CO2 for further 72 hours.

For series [3], the system named is H460 cell line. Description: In vitro cell proliferation inhibition with the drug combination (CTG method). The settings on record: for IC50: Homo sapiens. In kind it is cell-based, human. As to the method: • a) H460 cells (human non-small lung cancer cells, AKR1C3 enzyme highly expressed) were cultured in RPMI-1640 medium, added with 10% FBS and 1% double antibody, and placed at 37° C. and 5% CO2 for culturing.
• a) The cells were routinely cultured until the cell saturation was 80%-90%, and when the required quantity was reached, the cells were collected. • b) The cells were resuspended with the corresponding medium and cell counts were performed to prepare a cell suspension with appropriate density. • c) The cell suspension was added to a 96-well plate with 100 μL per well, and the cell density was 2,000 cells per well. • d) The cells were incubated overnight in an incubator at 37° C. with 5% CO2. 1.1.3 Treating Cells with Compound (72 Hours)
AST-3424 alone: after 24 hours of cell seeding, AST-3424 was administered alone. Specifically, each well was supplemented with 99 μL of growth medium, and then added with 1 μL of the prepared AST-3424 solution to form different concentrations of AST-3424. The plate was shaken gently to ensure uniform mixing, and placed in an incubator at 37° C. with 5% CO2.
The cell plates were placed in the incubator for 72 hours.
1.1.4 Treating Cells with Compound (2 Hours) • a) Administrating single drug: after 24 hours of cell seeding, AST-3424 was administered alone. Specifically, each well was supplemented with 99 μL of growth medium, and then added with 1 μL of the prepared AST-3424 solution to form different concentrations of AST-3424. The plate was shaken gently to ensure uniform mixing, and placed in the incubator for 2 hours. […] The plate was shaken gently to ensure uniform mixing. After the plate was placed in the incubator for 2 hours, 1 μL of the prepared AST-3424 solution was added to form different concentrations of AST-3424. The plate was shaken gently to ensure uniform mixing, and placed in the incubator at 37° C. with 5% CO2 for another 2 hours. Then, the supernatant was discarded, and the remainder was washed twice with growth medium and added with 200 μL of fresh medium.
1.1.6 Detecting with CTG Method • a) The cell plate to be tested was placed at room temperature to equilibrium for 30 minutes, and 100 μL of culture medium was discarded from each well. • b) 25 μL CTG reagent (CelltiterGlo kit) was added to each well. The plate was placed on a fast shaker to shake for 2 minutes, and then placed at room temperature away from light for 30 minutes. • c) The chemiluminescent signal value was read with multifunctional microplate reader at reading time of 1000 ms.
IC50 was calculated with GraphPad Prism 5 software, and the IC50 (half maximal inhibitory concentration) of the compound was obtained using the following nonlinear fitting formula: […]

For series [4], the system named is human lung cancer NCI-H460. The series can be described thus: Pharmacodynamics in subcutaneous xenograft model of human lung cancer NCI-H460 (tumor volume, TGI). In kind it is in vivo, BALB/c nude mice. The settings on record: Group 7: AST-3424 2.5 mg/kg QW×3 i.v. On the procedure:
Measures of pharmacodynamics of AST-3424 monotherapy and combination therapy with Celecoxib were performed in a subcutaneous xenograft model of human lung cancer NCI-H460 established by using female BALB/c nude mice.
After the inoculation of tumor cell, tumor growth was routinely monitored, and tumor volume and mouse weight were measured. Evaluation of therapeutic efficiency was based on the relative tumor growth inhibition TGI (%). The specific results are shown in Table 3 and FIG. 3, and the Pharmacodynamics analysis data on Day 30 after inoculation (at the end of drug administration) are particularly given in Table 4.

The mark [5] stands for this setting: Group 7: AST-3424 2.5 mg/kg QW×3 i.v., Day 37 after the inoculation of tumor cell.

In the case of `C[C@H](OP(=O)(N1CC1)N1CC1)c1ccc([N+](=O)[O-])c(Oc2cccc(C(=O)N(C)C)c2)c1` [AST-3424], the “Mean body weight g (x ± S)” value was 25.6 ± 0.7 g in series [1] (Group 7: AST-3424 2.5 mg/kg QW×3 i.v., Day 9 after the inoculation of tumor cell) and 22.5 ± 0.5 g in series [1] (setting [5]). Besides, the “Change of body weight (%)” value in series [1] (setting [5]) is reported as −11.74%. The tolerance of mice entry in series [1] (NCI-H460 model) is “good tolerance”. The IC50 in series [2] (NCI-H460, 2 h, Group 2: TH-3021 3 μM or Naproxen 400 μM + AST-3424 2 h simultaneously) came to 1.08 nM; in series [2] (NCI-H460, Group 1: TH-3021 3 μM or Naproxen 400 μM 2 h pretreatment, washed off, then AST-3424 2 h), 0.88 nM; in series [2] (NCI-H460, Group 3: AST-3424 2 h pretreatment, washed off, then TH-3021 3 μM or Naproxen 400 μM 2 h) it was 1 nM; in series [2] (NCI-H460, Group 4: TH-3021 3 μM or Naproxen 400 μM 2 h pretreatment, not washed off, AST-3424 2 h cotreatment), 1.14 nM; in series [3] (NCI-H460, AST-3424 alone, read-out: IC50(nM) -TH-3021), 0.97 nM; in series [3] (NCI-H460, read-out: IC50(nM) +3 μM TH-3021, +3 μM TH-3021 (2 h pre-incubation, then 2 h with AST-3424)), 360 nM. Besides, the Inhibition factor in series [3] (IC50 +3 μM TH-3021 vs AST-3424 alone) came out at 371.65. Moreover, the “Tumor volume (x ± S)” value in series [4] (Day 9 after cell inoculation) worked out at 144.01 ± 11.36 mm^3; in series [4] (Day 12 after cell inoculation), 164.28 ± 17.97 mm^3; in series [4] (Day 16 after cell inoculation), 166.22 ± 18.81 mm^3; in series [4] (Day 19 after cell inoculation), 209.80 ± 41.43 mm^3; in series [4] (Day 23 after cell inoculation), 208.60 ± 43.27 mm^3; in series [4] (Day 26 after cell inoculation), 291.82 ± 67.06 mm^3. Moreover, the “Tumor volume (x ± S)” value amounted to 327.47 ± 85.10 mm^3 in series [4] (Day 30 after cell inoculation); 327.47 ± 85.10 in series [4] (Day 30 after inoculation, in mm³); 348.83 ± 90.34 mm^3 in series [4] (Day 33 after cell inoculation); 439.52 ± 142.78 mm^3 in series [4] (Day 37 after cell inoculation). The “Relative tumor volume (x ± S)” value in series [4] (Day 30 after inoculation) is 2.19 ± 0.41. In addition, the “T/C (%)” value in series [4] (Day 30 after inoculation) is given as 39.25%. Besides, in series [4] (Day 30 after inoculation, 2.5 mg/kg), the “TGI (%)” value is recorded as 60.75%.

As a reminder, the IC50 is the midpoint of a concentration-inhibition curve.
